Results published in PubChem BioAssay (NCI).
Values joined by “and” are separate entries in the source; they are usually repeats but may differ in a detail not shown here. Equal values may be shown once.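 Grown in 96-well plates, cells were treated for 48 hours with each compound at five concentrations. Insufficient inhibition: endpoint recorded as highest concentration tested. Abbreviation: GI50, concentration required for 50% inhibition of growth. TGI: concentration producing complete growth inhibition.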

Legend:
Experiment in all cases: DTP human tumour cell line panel, 48 h
M14 melanoma = test system: M14 melanoma
ACHN renal = test system: ACHN renal
HCC-2998 colon = test system: HCC-2998 colon
SNB-75 CNS = test system: SNB-75 CNS
K-562 leukemia = test system: K-562 leukemia
SF-539 CNS = test system: SF-539 CNS
SW-620 colon = test system: SW-620 colon
NCI/ADR-RES ovarian = test system: NCI/ADR-RES ovarian
UACC-62 melanoma = test system: UACC-62 melanoma
U251 CNS = test system: U251 CNS

Structure (SMILES)	TGI (M14 melanoma)	TGI (ACHN renal)	TGI (HCC-2998 colon)	TGI (SNB-75 CNS)	TGI (K-562 leukemia)	TGI (SF-539 CNS)	TGI (SW-620 colon)	TGI (NCI/ADR-RES ovarian)	TGI (UACC-62 melanoma)	TGI (U251 CNS)	GI50 (M14 melanoma)	GI50 (ACHN renal)	GI50 (HCC-2998 colon)	GI50 (K-562 leukemia)	GI50 (SF-539 CNS)	GI50 (SW-620 colon)	GI50 (NCI/ADR-RES ovarian)	GI50 (UACC-62 melanoma)	GI50 (U251 CNS)	GI50 (SNB-75 CNS)
O=S1(=O)NC2CCC3NS(=O)(=O)NC4CCC(N1)N4S(=O)(=O)N23 (configuration not stated)	> 100 µM	> 100 µM	> 100 µM	> 100 µM	> 100 µM	> 100 µM	> 100 µM	> 100 µM	> 100 µM	> 100 µM										
COC(=O)c1ccc2c(c1)C(=O)c1c-2n(C)c(=O)c2cc(OC)c(OC)cc12	> 50 µM	> 50 µM	> 50 µM		> 50 µM	> 50 µM	> 50 µM	> 50 µM	> 50 µM	> 50 µM	> 50 µM	> 50 µM	> 50 µM	> 50 µM	> 50 µM	> 50 µM	> 50 µM	> 50 µM	19.8 µM	
CC(=O)[CH-]C(=O)c1ccccc1.CC(=O)[CH-]C(=O)c1ccccc1.CC[C@H](/C=C/C(C)[C@H]1CCC2[C@@H]3CC=C4C[C@@H]([O-])CC[C@]4(C)C3CC[C@@]21C)C(C)C.CC[O-].[Ti+4] (some centres not stated)	> 100 µM	> 100 µM	> 100 µM	> 100 µM	> 100 µM	> 100 µM	> 100 µM		> 100 µM	> 100 µM	> 100 µM	16.2 µM	> 100 µM	> 100 µM	> 100 µM	> 100 µM		> 100 µM	> 100 µM	22.4 µM
CCC(C)[C@H](NC(=O)NC(=O)NC(=O)CI)C(=O)OC (some centres not stated)	6.8 µM	4.43 µM	26.9 µM	26.1 µM	4.48 µM	22.8 µM	3.61 µM	60 µM	24.7 µM	27.9 µM	2.47 µM	2.11 µM	13.7 µM	2.03 µM	10.3 µM	1.86 µM	21.2 µM	11.3 µM	14.8 µM	10.3 µM
COC(=O)C[CH2][Ge]([CH3])([CH3])[S]c1ccccc1	> 100 µM	88.4 µM	> 100 µM	> 100 µM	> 100 µM	39.8 µM	31.4 µM		60.9 µM	44.1 µM	36.5 µM	28.6 µM		34.8 µM	21.1 µM	16.7 µM		21.9 µM	17.7 µM	31.4 µM
O=C(N/C(=C\c1ccc(/C=C(\NC(=O)c2ccccc2)c2nc3cc(Cl)ccc3[nH]2)cc1)c1nc2cc(Cl)ccc2[nH]1)c1ccccc1	> 100 µM	> 100 µM		> 100 µM	71 µM	78.5 µM	> 100 µM		65 µM	> 100 µM										
COc1ccc(CNC(C)C(=O)O)cc1 (configuration not stated)	> 100 µM	> 100 µM		> 100 µM	> 100 µM	> 100 µM	> 100 µM	> 100 µM	> 100 µM	> 100 µM										
CSc1nc2c(nc(N)n2C2OC(COC(C)=O)C(OC(C)=O)C(OC(C)=O)C2OC(C)=O)c(=O)n1C (configuration not stated)	> 100 µM	> 100 µM	> 100 µM	> 100 µM	> 100 µM	> 100 µM	> 100 µM		> 100 µM	> 100 µM										
N#Cc1ccsc1NC(=O)COC(=O)c1cccc(S(=O)(=O)N2CCc3ccccc32)c1		> 100 µM	> 100 µM	> 100 µM	> 100 µM	> 100 µM	> 100 µM	> 100 µM	> 100 µM	> 100 µM		50.5 µM	39.2 µM	21.3 µM	15.1 µM	24.1 µM	27.8 µM	32 µM	11.2 µM	29.9 µM
Cn1c(=O)c2ccc(-c3ccc(Br)cc3)nc2n(C)c1=O	> 100 µM		> 100 µM	73.5 µM	> 100 µM	> 100 µM	> 100 µM		> 100 µM	> 100 µM										
CC(C)=CCC1=C(OCC(=O)O)C(=O)c2ccccc2C1=O	> 100 µM	> 100 µM		64.7 µM	> 100 µM	56.6 µM	76.6 µM	> 100 µM	37.7 µM	> 100 µM										
C=C(C)C1CC=C(C)CC1 (configuration not stated)	> 100 µM and 1700 µM	> 100 µM and 1570 µM	> 100 µM and 1730 µM	> 100 µM and 1710 µM	> 100 µM and 1720 µM	> 100 µM and 1690 µM	> 100 µM and 1590 µM		> 100 µM and 1550 µM	> 100 µM and 1480 µM	> 100 µM	> 100 µM	> 100 µM	> 100 µM	> 100 µM	> 100 µM		> 100 µM	> 100 µM	> 100 µM
NC1=NN(c2ccccc2)C(=O)C1/C(=N\NC(=O)c1cc2ccccc2cc1O)C(=O)Nc1cccc(C(F)(F)F)c1 (configuration not stated)	> 100 µM	> 100 µM	> 100 µM	> 100 µM			> 100 µM		> 100 µM	> 100 µM										
N.N.O=P([O-])([O-])CN(CCN(CP(=O)([O-])[O-])CP(=O)([O-])[O-])CP(=O)([O-])[O-].[Pt+2]	> 100 µM	> 100 µM	> 100 µM		> 100 µM	> 100 µM	> 100 µM		> 100 µM	> 100 µM	> 100 µM	> 100 µM	> 100 µM	> 100 µM	> 100 µM	> 100 µM		> 100 µM	> 100 µM	
Cc1ccc(NC(=O)CC/C(CC(=O)C(C)(C)C)=N/NC(=O)C[N+](C)(C)C)cc1C	> 100 µM	> 100 µM	> 100 µM		> 100 µM	44.8 µM	> 100 µM		> 100 µM	> 100 µM										
COc1cccc(NC(=O)C(C)(C)C)c1SSc1c(NC(=O)C(C)(C)C)cccc1OC	32.5 µM	> 100 µM	> 100 µM	> 74.4 µM	> 82.5 µM	45.5 µM	33.1 µM		45.4 µM	35.1 µM										
